Experimental data reported in patent US20040067932A1 (priority 2002, published 2004).
Converted amounts (≈) assume the structure as drawn. Read-outs that look alike come from different tables or passages of the source. Each block holds one molecule with its values, some of them ahead of it.

Assays:
[1] = biological target: T1, P-gp drug efflux activity in HeL023 cells (Homo sapiens, UniProt P08183); test: Rhodamine 123 efflux assay, HeL023 cells; type: cell-based; details: Rh123 efflux, concentrations of Table 11 (MRE3008F20 10 μM)
T1 construct: nearly all (100±1%) the cells expressing high level of functional P-gp; endogenous in cells; host or cells: HeL023 human erythroleukemia cells
T1 sequence (P08183 whole entry): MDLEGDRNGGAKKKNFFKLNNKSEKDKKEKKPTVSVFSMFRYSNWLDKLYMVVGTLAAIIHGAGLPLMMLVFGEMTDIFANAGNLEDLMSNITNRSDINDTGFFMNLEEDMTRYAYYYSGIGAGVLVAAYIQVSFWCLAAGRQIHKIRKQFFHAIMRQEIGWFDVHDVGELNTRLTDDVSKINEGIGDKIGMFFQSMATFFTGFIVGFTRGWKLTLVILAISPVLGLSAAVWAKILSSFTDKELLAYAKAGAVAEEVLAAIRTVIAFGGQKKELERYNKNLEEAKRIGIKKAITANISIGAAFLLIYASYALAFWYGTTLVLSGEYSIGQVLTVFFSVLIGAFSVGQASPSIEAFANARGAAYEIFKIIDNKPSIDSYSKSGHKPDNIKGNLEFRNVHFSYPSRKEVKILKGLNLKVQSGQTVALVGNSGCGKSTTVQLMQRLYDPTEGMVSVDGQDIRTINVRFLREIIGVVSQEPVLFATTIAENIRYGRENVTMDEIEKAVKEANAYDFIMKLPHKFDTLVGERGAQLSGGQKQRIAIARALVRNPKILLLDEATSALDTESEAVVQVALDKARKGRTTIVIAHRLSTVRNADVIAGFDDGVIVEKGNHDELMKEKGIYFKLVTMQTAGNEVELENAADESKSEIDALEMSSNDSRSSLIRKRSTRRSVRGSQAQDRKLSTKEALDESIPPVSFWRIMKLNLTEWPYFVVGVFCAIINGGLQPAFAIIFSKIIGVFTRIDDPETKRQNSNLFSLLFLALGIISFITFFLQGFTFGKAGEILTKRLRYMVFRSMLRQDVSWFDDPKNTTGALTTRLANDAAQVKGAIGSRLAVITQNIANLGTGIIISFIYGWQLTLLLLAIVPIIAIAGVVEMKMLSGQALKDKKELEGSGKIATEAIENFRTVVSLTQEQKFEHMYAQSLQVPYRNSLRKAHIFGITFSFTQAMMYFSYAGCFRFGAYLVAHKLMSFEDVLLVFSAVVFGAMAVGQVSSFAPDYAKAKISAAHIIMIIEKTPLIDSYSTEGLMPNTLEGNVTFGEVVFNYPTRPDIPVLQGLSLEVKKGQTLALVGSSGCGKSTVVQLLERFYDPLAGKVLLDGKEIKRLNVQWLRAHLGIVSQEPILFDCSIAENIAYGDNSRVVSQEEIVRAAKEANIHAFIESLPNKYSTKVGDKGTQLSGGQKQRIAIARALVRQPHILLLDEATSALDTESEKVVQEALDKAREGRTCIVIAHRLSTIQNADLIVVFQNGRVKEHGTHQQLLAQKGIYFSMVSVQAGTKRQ
Protocol: 5×10^5 cells from each subline were loaded with 50 ng/ml of rhodamine 123 for 30 minutes at 37° C. in medium. The cells were washed and resuspended in dye-staining agent free medium for 3 hours at 37° C. to allow rhodamine 123 efflux. The cells were then washed twice and the fluorescence of intracellular rhodamine 123 were analysed with Flow cytometer (residual fluorescence FRES). The fluorescence was compared with loaded cells maintained at 4° C. to prevent drug export (maximal fluorescence FMAX). […] Cells from each subline that were not being exposed to rhodamine 123 were used as negative controls.
Rhodamine 123 (Rh123) retention, a P-gp functional assay, was studied in all cell lines. This assay was performed by incubating cells with Rh123 and determining Rh123 accumulation by measuring its fluorescence. The maximum load of Rh123 (FMAX) was quantified at the end of treatment harvesting the cells and storing them at 4° C. to prevent any active Rh123 efflux . The P-gp drug efflux was allowed incubating Rh123-loaded cells in fresh new medium Rh123-free for 3 hours at 37° C. After this incubation, residual fluorescence (FRES) was measured and compared to FMAX.

[2] = tested on: A375 cells; test: Flow cytometry (PI) G2/M accumulation and sub-G1 apoptosis, A375; type: cell-based, human; details: Homo sapiens, A-375, read-out: SEC50 (dose inducing 50% of the enhancing activity to vindesine)
Protocol: A375 and NCTC2544 adherent cells were trypsinized, mixed with floating cells, washed with PBS and permeabilised in 70% (vol/vol) ethanol/PBS solution at 4° C. for at least 24 hours. Jurkat, HeL023 and PBMC cells were centrifuged for 10 minutes at 1000×g. The cell pellet was then resuspended and permeabilised in 70% (vol/vol) ethanol/PBS solution at 4° C. for at least 24 hours. The cells were washed with PBS and the DNA was stained with a PBS solution, containing 20 μg/ml of propidium iodide and 100 μg/ml of RNAse, at room temperature for 30 minutes. Cells were analysed by FACScan (Becton-Dickinson) and the content of DNA was evaluated by the Cell-LISYS program (Becton-Dickinson). Cell distribution among cell cycle phases and apoptotic cells was evaluated as previously described (Secchiero et al., 2001). Briefly, the cell cycle distribution is shown as the percentage of cells containing 2n (G1 phase), 4n (G2 and M phases), 4n>x>2n. DNA amount (S phase) judged by propidium iodide staining. The apoptotic population is the percentage of cells with DNA content lower than 2n.
Cell proliferation and apoptosis are quantified by flow cytometer analysis after propidium-iodide (PI) DNA staining.

[3] = biological target: T2, human A3 adenosine receptor (Homo sapiens, UniProt P0DMS8); test: biochemical
T2 sequence (P0DMS8 1-318): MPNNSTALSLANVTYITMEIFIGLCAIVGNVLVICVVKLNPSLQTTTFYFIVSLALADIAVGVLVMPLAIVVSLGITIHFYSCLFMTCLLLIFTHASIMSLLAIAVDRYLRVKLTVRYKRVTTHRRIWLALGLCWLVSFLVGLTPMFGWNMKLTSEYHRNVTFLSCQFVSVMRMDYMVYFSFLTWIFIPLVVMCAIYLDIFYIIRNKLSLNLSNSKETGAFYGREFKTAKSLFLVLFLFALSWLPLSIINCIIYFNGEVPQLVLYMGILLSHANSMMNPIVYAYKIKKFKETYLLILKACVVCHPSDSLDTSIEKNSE

[4] = tested on: A375 melanoma cells; test: Colony formation assay of A375 cells; type: cell-based, human; details: 7 days
Protocol: FIG. 2 illustrates colony formation assay of A375 cells. Cells were treated with different drugs and colonies were counted after 7 days. The values represent the mean ±SEM of four independent experiments. D=DMSO (control); T=paclitaxel, 0.75 ng/ml; M=MRE 3008F20, 10 μM; C=CI-IB-MECA, 10 μM; TM=paclitaxel plus MRE 3008F20; TC=paclitaxel plus CI-IB-MECA treated cells. *P<0.01 TM versus T. Analysis was by ANOVA followed by Dunnett's test.;
Control plates received the same volume of DMSO alone. After 7 days of growth at 37° C. in humidified atmosphere containing 5% CO2, the cells were fixed with absolute methanol for 5′ and stained with 1/10 Giemsa/phosphate-buffered saline (PBS) staining solution for 10 minutes. Staining solution was removed and colonies of greater than 30 cells were scored as survivors. For each treatment, six individual wells were scored.
Colony formation assay experiments were performed on A375 melanoma cells treated with increasing concentration of paclitaxel (0.25-75 ng/ml). A3 stimulation is achieved with the selective agonist CI-IB-MECA while A3 blockade is obtained with the selective antagonist MRE 3008F20. […] (FIG. 2)

[5] = tested on: human pancreatic cancer Panc-1; test: MTT growth inhibitory assay, Panc-1; type: cell-based
[6] = tested on: human colon carcinoma HT29 cell line; test: MTT growth inhibitory assay, HT29; type: cell-based; details: for IC50: HT-29
[7] = tested on: human melanoma A375 cell line; test: MTT growth inhibitory assay, A375; type: cell-based
[8] = tested on: human lung carcinoma SKMES; test: MTT growth inhibitory assay, SKMES; type: cell-based
[9] = 100 mg/m^2; cited from earlier work
[10] = Human Pancreatic Cancer Panc-1, read-out: IC50 growth inhibition, agent used separately
[11] = Human Colon Carcinoma HT29, read-out: IC50 growth inhibition, agent used separately
[12] = Homo sapiens, A-375, Human Melanoma A375, read-out: IC50 growth inhibition, agent used separately
[13] = Human Lung Carcinoma SKMES, read-out: IC50 growth inhibition, agent used separately

SMILES: Nc1nc2ccc(Cl)cc2c2nc(-c3ccco3)nn12 [CGS 15943, 5-amino-9-chloro-2-(furyl) 1,2,4-triazolo[1,5-c]quinazoline, reference compound]
inhibition of P-gp activity (in words) [1]: much lower effect on P-gp activity
EC50 [2]: 12600 ± 1410 nM
Ki [3]: 118 ± 12 nM

SMILES: CNC(=O)[C@H]1O[C@@H](n2cnc3c(NCc4cccc(I)c4)nc(Cl)nc32)[C@H](O)[C@@H]1O [CI-IB-MECA]
colony formation, % of DMSO control ([4]; 10 μM alone): 130%
colony formation, % of control, combined with paclitaxel ([4]; 10 μM plus paclitaxel 0.75 ng/ml): 85%

IC50 [5, 10]: 8000 ± 5700 ng/mL (≈ 19200 nM)
IC50 [6, 11]: 56500 ± 8300 ng/mL (≈ 135000 nM)
IC50 [7, 12]: 49300 ± 40700 ng/mL (≈ 118000 nM)
IC50 [8, 13]: 36300 ± 31500 ng/mL (≈ 87000 nM)
SMILES: CN(C)c1ccc(NC(=O)Nc2nc3nn(C)cc3c3nc(-c4ccco4)nn23)cc1 [IL-11, N-1-(4-dimethylamino-phenyl)-N′-5-[8-methyl-2-(2-furyl)-pyrazolo[4,3-e]1,2,4-triazolo[1,5-c]pyrimidine]-urea]
Enhancement Factor for docetaxel ([5]; Panc-1, A3 antagonist 0.5 μg/ml): 1.4
Enhancement Factor for docetaxel ([6]; HT29, A3 antagonist 0.5 μg/ml): 6.4
Enhancement Factor for doxorubicin ([6]; HT29, A3 antagonist 0.5 μg/ml): 1.2
Enhancement Factor for irinotecan HCl ([6]; HT29, A3 antagonist 0.5 μg/ml): 1.1
Enhancement Factor for paclitaxel ([6]; HT29, A3 antagonist 0.5 μg/ml): 2.5
Enhancement Factor for docetaxel ([7]; A375, A3 antagonist 0.5 μg/ml): 5.3
Enhancement Factor for paclitaxel ([7]; A375, A3 antagonist 0.5 μg/ml): 3.1
Enhancement Factor for docetaxel ([7]; A375, A3 antagonist 5 μg/ml): 6.5
Enhancement Factor for paclitaxel ([7]; A375, A3 antagonist 5 μg/ml, paclitaxel 0.0001-0.05 μg/ml): 9.6
Enhancement Factor for paclitaxel ([7]; A375, A3 antagonist 5 μg/ml, paclitaxel 0.0002-0.1 μg/ml): 11.5
inhibition at 5 µg/mL ([7]; Homo sapiens, A-375, A375, 5 μg/ml, read-out: growth inhibition in the presence of A3 antagonist alone): 30 to 45%
Enhancement Factor for docetaxel ([8]; SKMES, A3 antagonist 0.5 μg/ml): 1.9
Enhancement Factor for irinotecan HCL ([8]; SKMES, A3 antagonist 0.5 μg/ml): 1.9
Enhancement Factor for paclitaxel ([8]; SKMES, A3 antagonist 0.5 μg/ml): 4.2
Enhancement Factor for vinblastine ([8]; SKMES, A3 antagonist 0.5 μg/ml): 1.6

SMILES: Cc1ccc(NC(=O)Nc2nc3nn(C)cc3c3nc(-c4ccco4)nn23)cc1 [MRE 3046F20, 5-N-(4-methylphenyl-carbamoyl)amino-8-methyl-2 (2-furyl)-pyrazolo-[4,3e]-1,2,4-triazolo[1,5-c]pyrimidine]
inhibition of P-gp activity (in words) [1]: strong inhibitors of P-gp activity
EC50 [2]: 570 ± 60 nM
Ki [3]: 3 ± 0.3 nM

SMILES: CCCn1cc2c(nc(NC(=O)Nc3ccccc3)n3nc(-c4ccco4)nc23)n1 [MRE 3055F20, 5-N-(4-phenylcarbamoyl)amino-8-propyl-2 (2furyl)-pyrazolo[4,3e]-1,2,4triazolo-[1,5c]pyrimidine]
inhibition of P-gp activity (in words) [1]: strong inhibitors of P-gp activity
EC50 [2]: 310 ± 30 nM
Ki [3]: 1.4 ± 0.2 nM

SMILES: Nc1nc(NCCc2ccc(O)cc2)nc2nc(-c3ccco3)nn12 [ZM 241385, 4-(2-[7-amino-2-(2-furyl)-[1,2,4]triazolo[2,3-a][1,3,5]triazin-5-ylamino]ethyl)phenol, reference compound]
inhibition of P-gp activity (in words) [1]: much lower effect on P-gp activity
EC50 [2]: 25000 ± 2230 nM

IC50 ([5]; Homo sapiens, Panc-1, docetaxel 0.00001-0.005 μg/ml, alone, read-out: IC50 of docetaxel, A3 antagonist none): 0.68 ng/mL (≈ 0.842 nM)
IC50 [5, 10]: 0.37 ± 0.31 ng/mL (≈ 0.458 nM)
IC50 [6, 11]: 0.24 ± 0.05 ng/mL (≈ 0.297 nM)
IC50 ([6]; Homo sapiens, HT29, docetaxel 0.00001-0.005 μg/ml, alone, read-out: IC50 of docetaxel, A3 antagonist none): 0.018 ng/mL (≈ 0.0223 nM)
IC50 [7, 12]: 0.2 ± 0.07 ng/mL (≈ 0.248 nM)
IC50 ([8]; Homo sapiens, SKMES, docetaxel 0.00001-0.005 μg/ml, alone, read-out: IC50 of docetaxel, A3 antagonist none): 0.47 ng/mL (≈ 0.582 nM)
IC50 [8, 13]: 0.84 ± 0.37 ng/mL (≈ 1.04 nM)
SMILES: CC(=O)O[C@@]12CO[C@@H]1C[C@H](O)[C@@]1(C)C(=O)[C@H](O)C3=C(C)[C@@H](OC(=O)[C@H](O)[C@@H](NC(=O)OC(C)(C)C)c4ccccc4)C[C@@](O)([C@@H](OC(=O)c4ccccc4)[C@H]21)C3(C)C [docetaxel, reference compound]
acute hypersensitivity reaction, % of patients [9]: 13%
severe hypersensitivity reaction, % of patients [9]: 1.2%

IC50 ([6]; Homo sapiens, HT29, doxorubicin 0.0002-0.1 μg/ml, alone, read-out: IC50 of doxorubicin, A3 antagonist none): 460 ng/mL (≈ 846 nM)
IC50 ([6]; Homo sapiens, HT29 cell line, read-out: IC50 value): 211 ng/mL (≈ 388 nM)
IC50 ([7]; Homo sapiens, A-375, A375 cell line, read-out: IC50 value): 6.4 ng/mL (≈ 11.8 nM)
SMILES: COc1cccc2c1C(=O)c1c(O)c3c(c(O)c1C2=O)C[C@@](O)(C(=O)CO)C[C@@H]3O[C@H]1C[C@H](N)[C@H](O)[C@H](C)O1 [doxorubicin, reference compound]
fold HT29 more refractory than A375 ([6]; ratio of IC50 HT29 vs A375): approximately 30 fold
